Source: patent US20220347173A1, “METHODS OF TREATING LIVER FIBROSIS USING CALPAIN INHIBITORS” (Blade Therapeutics, Inc., priority 2018, published 2022)

Columns and labels:
[1] = tested on: CDAHFD rat model of non-alcoholic steatohepatitis (NASH); assay: Rat choline-deficient, amino acid-defined high fat diet (CDAHFD) model of NASH; type: in vivo, Male Wistar rats; conditions: for mRNA expression of CTGF: MC BID 42.89±32.82; for mRNA expression of IL-6: MC BID 54.89±47.23; for mRNA expression of Colla1: MC BID 106.6±59.97; for SMA (Acta2) protein expression: MC QD 5.82±0.67
From the text: A rat choline-deficient, amino acid-defined high fat diet (CDAHFD) model of non-alcoholic steatohepatitis (NASH) reproduces key features of the human disease. This model was used to examine the anti-fibrotic effects of Compound 405 (shown in Table 1a) in the CDAHFD rat model.
Male Wistar rats (Charles River Laboratories) were randomly assigned to receive the following treatments: Group 1 (n=8) served as a healthy control and were fed normal chow for 12 weeks; Group 2 (n=8) served as a disease control and was fed a CDAHFD and received once daily (QD) oral gavage treatment with vehicle Methylcellulose (MC) beginning at week 5 post CDAHFD, Group 3 (n=8) served as a disease control and was fed a CDAHFD and received twice daily (BID) oral gavage treatment with vehicle Methylcellulose (MC) beginning at week 5 post CDAHFD, Group 4 (n=8) was fed a CDAHFD and received QD oral gavage treatment with Compound 405 (200 mg/kg) beginning at week 5 post CDAHFD, Group 5 (n=8) was fed a CDAHFD and received BID oral gavage treatment with Compound 405 (100 mg/kg) beginning at week 5 post CDAHFD, Group 6 (n=8) was fed a CDAHFD and received QD oral gavage treatment with Compound 405 (60 mg/kg) beginning at week 5 post CDAHFD, Group 7 (n=8) was fed a CDAHFD and received BID oral gavage treatment with Compound 405 (30 mg/kg) beginning at week 5 post CDAHFD. At the end of the study (12 weeks), liver tissue and serum was collected for further analysis. A part of the liver was used for histological analysis and the spare liver from each individual animal was snap frozen on liquid nitrogen and stored at −80° C. Serum was collected to measure ALT,

[2] = tested on: CCl4-induced liver fibrosis in male BALB/c mice; assay: Carbon Tetrachloride (CCl4)-induced liver fibrosis model; type: in vivo
Method: This study is performed to evaluate the effects of calpain compounds disclosed herein on a Carbon Tetrachloride (CCl4)-induced liver fibrosis in male BALB/c mice. Liver fibrosis is induced in mice by the administration of CCl4 twice weekly for four weeks. CCl4 administered animals are treated with compounds disclosed herein in a therapeutic treatment mode on day 14 post initiation of CCl4 injection and continued until study termination. Study is terminated 96 hours following the last CCl4 administration, i.e., on day 32 post CCl4 administration. Compounds described herein show an improvement in fibrosis score and no effect on liver enzymes, liver weight or body weight compared to vehicle.
Carbon tetrachloride (CCl4) is purchased from Sigma (cat #319961). To induce liver fibrosis, mice are administered CCl4 (1:1, CCl4:mineral oil) via intraperitoneal (ip) injection at a dose volume of 1 ml/kg body weight. On every CCl4 administration day animals are weighed prior to administration of CCl4 and the dose volume is adjusted as per body weight of individual animal. Animals are administered CCl4: mineral oil twice weekly i.e. every Monday and Thursday for four weeks, 2 hours post morning treatment. The final CCl4 injection is received on day 28 post first CCl4 injection.
Animals are bled via sub-mandibular route on day-4 prior to study initiation, and on day 13, post CCl4 administration, a day before the therapeutic treatment began. Plasma is prepared and stored at −20° C. until it is analyzed. Upon study termination day 32 post CCl4 administration, animals are bled via cardiac puncture. Serum is prepared and stored at −20° C. until shipped to contract company for liver enzyme panel analysis. […]
The procedures described above were followed using Compound 405 as a test compound administered at 30 mg/kg BID or 100 mg/kg BID. Body weights were measured prior to every CCl4 administration. […] Average liver weight of 2.24+/−0.06 g was recorded in animals treated with vehicle compared to no CCl4 administered control mice 1.45+/−0.03 g (p<0.0001).

[3] = BID oral 100 mg/kg and 30 mg/kg, serum
[4] = QD oral 200 mg/kg and 60 mg/kg, serum

Cc1nc(-c2ccccc2F)c(C(=O)NC(Cc2ccccc2)C(=O)C(N)=O)o1 (centres unmarked) [Compound 405]
mRNA expression of CTGF ([1]; 30 mg/kg BID, p<0.01): 3.55±1.35 | mRNA expression of IL-6 ([1]; 30 mg/kg BID, p<0.01): 2.80±1.35 | mRNA expression of SMA ([1]; 30 mg/kg BID, MC BID 73.65±37.51, p<0.01): 11.46±2.02 | mRNA expression of Colla1 ([1]; 30 mg/kg BID, p<0.01): 13.37±2.53 | Liver Weight (as a percent of total weight) ([1]; 30 mg/kg BID, p<0.05): 6.6 ± 0.3% | fibrosis as measured by CPA ([1]; 60 mg/kg QD): did not significantly decrease | fibrosis as measured by hydroxyproline ([1]; 60 mg/kg QD): did not significantly decrease | SMA (Acta2) protein expression ([1]; 60 mg/kg QD, p<0.01): 2.40±1.16% | collagen deposition ([1]; 100 mg/kg BID): reduced | SMA (Acta2) protein expression in livers ([1]; 100 mg/kg BID, MC BID 7.08±1.36%, p<0.01): 2.01±1.14% | mRNA expression of CTGF ([1]; 100 mg/kg BID, p<0.05): 3.84±2.24 | mRNA expression of IL-6 ([1]; 100 mg/kg BID, p<0.01): 15.81±9.01 | mRNA expression of Colla1 ([1]; 100 mg/kg BID, p<0.01): 35.76±33.84 | hydroxyproline ([1]; 100 mg/kg BID, MC BID 706.9±173.5 nmol/L, p<0.05): 458.2 ± 146 nmol/L | Liver Weight (as a percent of total weight) ([1]; 100 mg/kg BID, p<0.05): 6.6 ± 0.8% | SMA (Acta2) protein expression ([1]; 200 mg/kg QD, p<0.01): 1.7±0.58% | collagen proportional area (CPA) ([1]; 200 mg/kg QD, MC QD 11.28±3.50%, liver at 12 weeks): 6.08±1.69% | hydroxyproline ([1]; 200 mg/kg QD, MC QD 731.3±165.9 nmol/L, p<0.05): 495.1 ± 113.9 nmol/L | pro-fibrotic or inflammatory gene expression (mRNA) ([1]; 200 mg/kg or 60 mg/kg QD): did not significantly decrease | spleen weight (as a percent of total weight) ([1]; BID oral 100 mg/kg and 30 mg/kg): did not affect | body weight ([1]; BID oral 100 mg/kg and 30 mg/kg, weeks 5-12): did not affect | albumin levels [1, 3]: did not alter | level of blood transaminases (U/L) including ALT, AST, and ALP vs MC BID [1, 3]: did not change | Total bilirubin ([1]; BID study, serum): did not change significantly | expression of Calpain1 ([1]; BID treatment): did not change | expression of Calpain 2 ([1]; BID treatment): did not change | liver fat content (histological analysis of steatosis) ([1]; BID treatment): did not change | body weight relative to vehicle (methyl cellulose) control ([1]; QD oral 200 mg/kg and 60 mg/kg, weeks 5-12): did not alter | albumin levels [1, 4]: did not change | level of blood transaminases (ALT, AST, ALP) vs MC QD [1, 4]: did not alter | Total bilirubin ([1]; QD study, serum): did not change significantly | liver fat content (histological analysis of steatosis) ([1]; QD treatment): did not change | Fibrosis score (Picrosirius Red-stained liver sections, polarized light) ([2]; CCl4-treated mice, oral 30 mg/kg BID or 100 mg/kg BID from day 14, day 32): statistically significant reduction | length and thickness of the collagen fibers (PSR-stained liver sections) ([2]; CCl4-treated mice, oral BID from day 14): decrease | fibrosis ([2]; dosed therapeutically at 100 mg/kg, twice a day): significantly reduced
